Laboratory results taken from patent US9346793B2, “Hydroxylated aminotriazole derivatives as ALX receptor agonists” (Actelion Pharmaceuticals, LTD., priority 2010, dated 2016).

Molecular target: recombinant human ALX receptor (HEK293-hALXR-Gα16 cells) (Homo sapiens (Human), UniProt P25090)
Assay: Intracellular calcium measurements (FLIPR), ALX receptor agonistic activity
Format: cell-based
Settings: normalized to 10 nM WKYMVm, read-out: EC50 (agonistic activity with respect to the ALX receptor)
Protocol: The ALX receptor agonistic activity of the compounds of formula (I) is determined in accordance with the following experimental method.
Intracellular Calcium Measurements:
Cells expressing recombinant human ALX receptor and the G-protein Gα16 (HEK293-hALXR-Gα16) were grown to 80% confluency in Growing Medium (GM). Cells were detached from culture dishes with a cell dissociation buffer (Invitrogen, 13151-014), and collected by centrifugation at 1,000 rpm at rt for 5 min in Assay Buffer (AB) (equal parts of Hank's BSS (Gibco, 14065-049) and DMEM without Phenol Red (Gibco, 11880-028)). After 60 min incubation at 37° C. under 5% CO2 in AB supplemented with 1 μM Fluo-4 (AM) (Invitrogen, F14202) and 20 mM HEPES (Gibco, 15630-056), the cells were washed and resuspended in AB. They were then seeded onto 384-well FLIPR assay plates (Greiner, 781091) at 50,000 cells in 70 μl per well and sedimented by centrifugation at 1,000 rpm for 1 min. Stock solutions of test compounds were made up at a concentration of 10 mM in DMSO, and serially diluted in AB to concentrations required for activation dose response curves. WKYMVm (Phoenix Peptides) was used as a reference agonist. A FLIPR Tetra instrument (Molecular Devices) was operated according to the manufacturers standard instructions, adding 4 μl of test compound dissolved at 10 mM in DMSO and diluted prior to the experiment in assay buffer to obtain the desired final concentration. Changes in fluorescence were monitored before and after the addition of test compounds at lex=488 nm and lem=540 nm. Emission peak values above base level after compounds addition were exported after base line subtraction. Values were normalized to high-level control (WKYMVm compound, 10 nM final concentration) after subtraction of the base line value (AB addition).

Sequence of recombinant human ALX receptor (HEK293-hALXR-Gα16 cells) (P25090 whole entry): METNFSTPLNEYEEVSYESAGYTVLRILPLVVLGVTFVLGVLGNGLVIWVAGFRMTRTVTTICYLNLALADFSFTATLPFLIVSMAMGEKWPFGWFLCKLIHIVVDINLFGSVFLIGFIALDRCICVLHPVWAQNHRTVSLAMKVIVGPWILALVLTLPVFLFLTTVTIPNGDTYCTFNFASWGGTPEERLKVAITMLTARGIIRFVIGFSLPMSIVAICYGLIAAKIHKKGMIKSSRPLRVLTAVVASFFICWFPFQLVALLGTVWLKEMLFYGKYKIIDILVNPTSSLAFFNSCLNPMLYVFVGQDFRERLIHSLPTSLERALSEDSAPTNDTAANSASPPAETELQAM

| EC50 | SMILES |
| --- | --- |
| 11.3 nM | Cc1cccc(-c2ocnc2C(=O)Nc2cnn(Cc3nc(C(C)(C)O)co3)n2)c1 [Example 14, 5-m-Tolyl-oxazole-4-carboxylic acid {2-[4-(1-hydroxy-1-methyl-ethyl)-oxazol-2-ylmethyl]-2H-[1,2,3]triazol-4-yl}-amide] |
| 32.3 nM | Cc1nc(C(=O)Nc2cnn(Cc3nc(C(C)(C)O)co3)n2)c(-c2cccc(OC(F)(F)F)c2)o1 [Example 12, 2-Methyl-5-(3-trifluoromethoxy-phenyl)-oxazole-4-carboxylic acid {2-[4-(1-hydroxy-1-methyl-ethyl)-oxazol-2-ylmethyl]-2H-[1,2,3]triazol-4-yl}-amide] |
| 17.8 nM | CC(C)(O)c1coc(Cn2ncc(NC(=O)c3ncoc3-c3cccc(Cl)c3)n2)n1 [Example 8, 5-(3-Chloro-phenyl)-oxazole-4-carboxylic acid {2-[4-(1-hydroxy-1-methyl-ethyl)-oxazol-2-ylmethyl]-2H-[1,2,3]triazol-4-yl}-amide] |
| 12.7 nM | COc1cccc(-c2oc(C)nc2C(=O)Nc2cnn(Cc3nc(C(C)(C)O)co3)n2)c1 [Example 6, 5-(3-Methoxy-phenyl)-2-methyl-oxazole-4-carboxylic acid {2-[4-(1-hydroxy-1-methyl-ethyl)-oxazol-2-ylmethyl]-2H-[1,2,3]triazol-4-yl}-amide] |
| 13.2 nM | Cc1nc(C(=O)Nc2cnn(Cc3nc(C(C)(C)O)co3)n2)c(-c2cccc(F)c2)o1 [Example 13, 5-(3-Fluoro-phenyl)-2-methyl-oxazole-4-carboxylic acid {2-[4-(1-hydroxy-1-methyl-ethyl)-oxazol-2-ylmethyl]-2H-[1,2,3]triazol-4-yl}-amide] |
| 11.8 nM | Cc1cccc(-c2oc(C)nc2C(=O)Nc2cnn(Cc3nc(C(C)(C)O)co3)n2)c1 [Example 1, 2-Methyl-5-m-tolyl-oxazole-4-carboxylic acid {2-[4-(1-hydroxy-1-methyl-ethyl)-oxazol-2-ylmethyl]-2H-[1,2,3]triazol-4-yl}-amide] |
| 7.6 nM | Cc1cccc(-c2oc(C)nc2C(=O)Nc2cnn(Cc3nc(C4(O)CC4)co3)n2)c1 [Example 2, 2-Methyl-5-m-tolyl-oxazole-4-carboxylic acid {2-[4-(1-hydroxy-cyclopropyl)-oxazol-2-ylmethyl]-2H-[1,2,3]triazol-4-yl}-amide] |
| 51 nM | CC(C)(O)c1coc(Cn2ncc(NC(=O)c3ncoc3-c3ccc(F)cc3)n2)n1 [Example 4, 5-(4-Fluoro-phenyl)-oxazole-4-carboxylic acid {2-[4-(1-hydroxy-1-methyl-ethyl)-oxazol-2-ylmethyl]-2H-[1,2,3]triazol-4-yl}-amide] |
| 17.2 nM | COc1cccc(-c2ocnc2C(=O)Nc2cnn(Cc3nc(C(C)(C)O)co3)n2)c1 [Example 9, 5-(3-Methoxy-phenyl)-oxazole-4-carboxylic acid {2-[4-(1-hydroxy-1-methyl-ethyl)-oxazol-2-ylmethyl]-2H-[1,2,3]triazol-4-yl}-amide] |
| 10.1 nM | Cc1nc(C(=O)Nc2cnn(Cc3nc(C(C)(C)O)co3)n2)c(-c2cccc(Cl)c2)o1 [Example 7, 5-(3-Chloro-phenyl)-2-methyl-oxazole-4-carboxylic acid {2-[4-(1-hydroxy-1-methyl-ethyl)-oxazol-2-ylmethyl]-2H-[1,2,3]triazol-4-yl}-amide] |
| 82.3 nM | CC(C)(O)c1coc(Cn2ncc(NC(=O)c3ncsc3-c3cccc(F)c3)n2)n1 [Example 11, 5-(3-Fluoro-phenyl)-thiazole-4-carboxylic acid {2-[4-(1-hydroxy-1-methyl-ethyl)-oxazol-2-ylmethyl]-2H-[1,2,3]triazol-4-yl}-amide] |
| 245 nM | Cc1cccc(-c2oc(C)nc2C(=O)Nc2cnn(Cc3nc(C(C)(C)O)cs3)n2)c1 [N-(2-((4-(2-Hydroxypropan-2-yl)thiazol-2-yl)methyl)-2H-1,2,3-triazol-4-yl)-2-methyl-5-(m-tolyl)oxazole-4-carboxamide, reference compound] |
| 21.7 nM | Cc1nc(C(=O)Nc2cnn(Cc3nc(C(C)(C)O)co3)n2)c(-c2cccc(C(F)(F)F)c2)o1 [Example 5, 2-Methyl-5-(3-trifluoromethyl-phenyl)-oxazole-4-carboxylic acid {2-[4-(1-hydroxy-1-methyl-ethyl)-oxazol-2-ylmethyl]-2H-[1,2,3]triazol-4-yl}-amide] |
| 8 nM | CC(C)(O)c1coc(Cn2ncc(NC(=O)c3ncoc3-c3ccccc3)n2)n1 [Example 3, 5-Phenyl-oxazole-4-carboxylic acid {2-[4-(1-hydroxy-1-methyl-ethyl)-oxazol-2-ylmethyl]-2H-[1,2,3]triazol-4-yl}-amide] |
| 52.9 nM | Cc1cccc(-c2oc(C3CC3)nc2C(=O)Nc2cnn(Cc3nc(C(C)(C)O)co3)n2)c1 [Example 15, 2-Cyclopropyl-5-m-tolyl-oxazole-4-carboxylic acid {2-[4-(1-hydroxy-1-methyl-ethyl)-oxazol-2-ylmethyl]-2H-[1,2,3]triazol-4-yl}-amide] |
| 10.3 nM | Cc1nc(C(=O)Nc2cnn(Cc3nc(C(C)(C)O)co3)n2)c(-c2ccccc2)o1 [Example 10, 2-Methyl-5-phenyl-oxazole-4-carboxylic acid {2-[4-(1-hydroxy-1-methyl-ethyl)-oxazol-2-ylmethyl]-2H-[1,2,3]triazol-4-yl}-amide] |
